From the Kinase Knowledgebase extract (Sharma et al. 2016)

Biological target: PIK3CD (Human) (UniProt O00329)
Assay: Assessment of PIK3CD Kinase Activity

Chain of PIK3CD (Human) (O00329 whole entry, looked up): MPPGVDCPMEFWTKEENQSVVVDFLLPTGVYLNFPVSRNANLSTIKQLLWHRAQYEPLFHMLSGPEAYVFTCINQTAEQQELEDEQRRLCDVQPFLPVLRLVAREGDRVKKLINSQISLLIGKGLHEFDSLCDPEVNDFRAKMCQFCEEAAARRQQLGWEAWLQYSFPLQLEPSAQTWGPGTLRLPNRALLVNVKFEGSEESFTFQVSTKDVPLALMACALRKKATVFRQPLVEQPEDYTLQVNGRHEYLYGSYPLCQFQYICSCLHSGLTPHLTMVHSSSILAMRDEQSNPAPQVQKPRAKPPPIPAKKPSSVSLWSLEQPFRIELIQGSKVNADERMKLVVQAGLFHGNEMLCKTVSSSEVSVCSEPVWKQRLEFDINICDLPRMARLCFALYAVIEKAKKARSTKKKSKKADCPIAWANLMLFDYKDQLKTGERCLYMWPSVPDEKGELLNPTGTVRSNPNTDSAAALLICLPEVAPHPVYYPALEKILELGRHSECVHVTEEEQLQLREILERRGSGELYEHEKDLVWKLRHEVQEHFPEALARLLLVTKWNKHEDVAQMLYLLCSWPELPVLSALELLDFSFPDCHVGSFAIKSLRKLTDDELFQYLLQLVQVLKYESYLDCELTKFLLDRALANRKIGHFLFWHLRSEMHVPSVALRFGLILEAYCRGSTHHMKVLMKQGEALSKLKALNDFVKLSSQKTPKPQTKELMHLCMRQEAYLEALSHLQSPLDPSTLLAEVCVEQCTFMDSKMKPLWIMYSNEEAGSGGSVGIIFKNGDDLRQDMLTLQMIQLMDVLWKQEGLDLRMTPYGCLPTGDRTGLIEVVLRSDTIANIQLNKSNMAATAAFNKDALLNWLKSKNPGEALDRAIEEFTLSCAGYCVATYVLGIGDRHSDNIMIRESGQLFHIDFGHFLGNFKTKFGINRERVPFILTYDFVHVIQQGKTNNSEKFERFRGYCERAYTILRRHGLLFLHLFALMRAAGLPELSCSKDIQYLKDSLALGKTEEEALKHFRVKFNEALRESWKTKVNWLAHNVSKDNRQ

Structure (SMILES) | IC50
Cc1cccc2cc(Cn3cnc4c(N)ncnc43)c(N3CCC4CCCCC4C3)nc12 (configuration not stated) | 500 to 1500 nM
COc1ccc(OCc2cc3cccc(C)c3nc2-c2ccccc2Cl)c(Cl)c1 | 500 to 1500 nM
CNCCN(C)c1nc2c(C)cccc2cc1COc1cccc(OC)c1 | 500 to 1500 nM
COc1cccc(NCc2cc3cccc(C)c3nc2-c2ccccc2Cl)c1 | 500 to 1500 nM
COc1cnc(C(=O)NCc2nc3ccccc3cc2-c2ccccc2C)c(N)n1 | 500 to 1500 nM
COc1cc(OC)cc(OCc2cc3cccc(C)c3nc2-c2ccccc2Cl)c1 | 500 to 1500 nM
COc1cc(NCc2cc3cccc(C)c3nc2-c2ccccc2Cl)cc(OC)c1 | 500 to 1500 nM
CCOc1ccccc1-c1nc2c(C)cccc2cc1Cn1cnc2c(N)ncnc21 | 250 to 500 nM
Cc1ccc(C)c(-c2nc3c(C)cccc3cc2Cn2cnc3c(N)ncnc32)c1 | 50 to 250 nM
COc1ccc(NCc2cc3cccc(C)c3nc2-c2ccccc2Cl)cc1OC | 500 to 1500 nM

Second part, the molecule after the results:

IC50 | Structure (SMILES)
500 to 1500 nM | Cc1cccc2cc(CNC(=O)c3nccnc3N)c(N3CCC(N(C)C(=O)OC(C)(C)C)CC3)nc12
< 50 nM | CN(C)Cc1ccccc1-c1cc2c(Cl)cccc2nc1CNC(=O)c1nccnc1N
500 to 1500 nM | CNCCN(C)c1nc2c(C)cccc2cc1CNc1cccc(OC)c1
250 to 500 nM | Cc1cccc2cc(CNC(=O)c3nccnc3N)c(N3C[C@H](C)NC[C@H]3C)nc12
500 to 1500 nM | Cc1ccc(S(=O)(=O)C(C)CCN(C)c2nc3c(C)cccc3cc2CNC(=O)c2nccnc2N)cc1 (configuration not stated)
50 to 250 nM | Cc1cccc2cc(CNC(=O)c3nccnc3N)c(N(C)CCN(C)C(=O)[C@@H]3CCCN3)nc12
50 to 250 nM | CNCCCC(C)c1nc2c(C)cccc2cc1CNC(=O)c1nccnc1N (configuration not stated)
